Laboratory results as given in paper PMC9127186, “Molecular Basis Underlying Hepatobiliary and Renal Excretion of Phenolic Acids of Salvia miltiorrhiza Roots (Danshen)” (Frontiers in Pharmacology, 2022).

Experiments:
human OCT2 = biological target: T1, human OCT2 (Homo sapiens, UniProt O15244); experiment: Cellular transport assay, HEK-293 cells expressing human OCT2; conditions: Danshen phenolic acid at 100 μM final concentration, 10 min; human OCT2-transfected vs mock cells
T1 sequence (O15244 1-555): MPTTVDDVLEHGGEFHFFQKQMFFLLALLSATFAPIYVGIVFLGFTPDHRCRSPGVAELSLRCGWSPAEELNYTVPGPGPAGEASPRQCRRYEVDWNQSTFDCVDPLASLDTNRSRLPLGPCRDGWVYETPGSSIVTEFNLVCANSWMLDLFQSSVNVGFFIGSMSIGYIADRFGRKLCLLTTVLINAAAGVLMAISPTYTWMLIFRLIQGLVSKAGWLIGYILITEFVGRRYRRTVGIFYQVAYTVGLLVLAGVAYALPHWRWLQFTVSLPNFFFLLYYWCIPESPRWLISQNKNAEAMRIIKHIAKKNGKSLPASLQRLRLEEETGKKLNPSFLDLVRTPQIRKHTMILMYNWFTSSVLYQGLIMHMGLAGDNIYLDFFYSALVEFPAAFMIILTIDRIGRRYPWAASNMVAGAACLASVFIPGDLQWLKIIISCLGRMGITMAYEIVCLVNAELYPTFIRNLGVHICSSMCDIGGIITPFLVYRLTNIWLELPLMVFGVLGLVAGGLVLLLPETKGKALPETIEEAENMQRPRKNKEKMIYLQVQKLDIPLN

rat Pept1 = biological target: T2, rat Pept1 (Rattus norvegicus, UniProt P51574); experiment: Cellular transport assay, HEK-293 cells expressing rat Pept1; conditions: Danshen phenolic acid at 100 μM final concentration, 10 min, incubation pH 6.0; rat Pept1-transfected vs mock cells
T2 sequence (P51574 1-710): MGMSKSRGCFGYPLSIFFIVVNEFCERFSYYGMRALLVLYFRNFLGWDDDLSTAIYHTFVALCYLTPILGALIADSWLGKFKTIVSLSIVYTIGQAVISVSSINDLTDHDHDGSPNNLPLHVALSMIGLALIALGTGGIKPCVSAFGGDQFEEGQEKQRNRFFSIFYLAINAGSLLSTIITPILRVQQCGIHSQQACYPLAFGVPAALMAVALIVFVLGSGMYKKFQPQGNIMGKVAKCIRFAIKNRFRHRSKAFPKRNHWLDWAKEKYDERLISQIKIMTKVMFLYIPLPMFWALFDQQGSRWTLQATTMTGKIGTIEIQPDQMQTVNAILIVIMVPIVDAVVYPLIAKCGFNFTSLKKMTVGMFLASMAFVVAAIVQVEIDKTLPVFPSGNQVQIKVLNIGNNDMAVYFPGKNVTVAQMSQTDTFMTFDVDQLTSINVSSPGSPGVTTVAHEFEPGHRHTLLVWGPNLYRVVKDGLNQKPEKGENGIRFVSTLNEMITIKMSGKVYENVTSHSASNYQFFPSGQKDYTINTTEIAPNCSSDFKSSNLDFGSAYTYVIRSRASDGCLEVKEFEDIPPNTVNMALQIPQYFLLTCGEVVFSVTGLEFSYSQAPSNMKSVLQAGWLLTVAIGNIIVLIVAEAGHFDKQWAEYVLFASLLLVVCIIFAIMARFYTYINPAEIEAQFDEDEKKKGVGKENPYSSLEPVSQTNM

rat Octn2 = biological target: T3, rat Octn2 (Rattus norvegicus, UniProt O70594); experiment: Cellular transport assay, HEK-293 cells expressing rat Octn2; conditions: Danshen phenolic acid at 100 μM final concentration, 10 min; rat Octn2-transfected vs mock cells
T3 sequence (O70594 1-557): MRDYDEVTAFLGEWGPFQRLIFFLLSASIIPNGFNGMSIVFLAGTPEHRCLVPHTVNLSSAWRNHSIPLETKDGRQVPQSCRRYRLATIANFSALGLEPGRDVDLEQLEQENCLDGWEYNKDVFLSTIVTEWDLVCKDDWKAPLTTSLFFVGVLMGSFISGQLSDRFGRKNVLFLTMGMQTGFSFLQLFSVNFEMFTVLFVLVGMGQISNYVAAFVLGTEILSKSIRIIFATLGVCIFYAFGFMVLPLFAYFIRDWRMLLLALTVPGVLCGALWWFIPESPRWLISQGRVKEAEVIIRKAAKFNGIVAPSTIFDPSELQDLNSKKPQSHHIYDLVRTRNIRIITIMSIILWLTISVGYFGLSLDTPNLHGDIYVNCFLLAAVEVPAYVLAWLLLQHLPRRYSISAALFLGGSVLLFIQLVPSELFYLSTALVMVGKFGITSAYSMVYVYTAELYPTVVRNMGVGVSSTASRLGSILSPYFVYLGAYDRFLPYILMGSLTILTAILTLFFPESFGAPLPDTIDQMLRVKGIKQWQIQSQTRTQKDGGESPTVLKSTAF

human OATP2B1 = biological target: T4, human OATP2B1 (Homo sapiens, UniProt O94956); experiment: Cellular transport assay, HEK-293 cells expressing human OATP2B1; conditions: Danshen phenolic acid at 100 μM final concentration, 10 min; human OATP2B1-transfected vs mock cells
T4 sequence (O94956 1-709): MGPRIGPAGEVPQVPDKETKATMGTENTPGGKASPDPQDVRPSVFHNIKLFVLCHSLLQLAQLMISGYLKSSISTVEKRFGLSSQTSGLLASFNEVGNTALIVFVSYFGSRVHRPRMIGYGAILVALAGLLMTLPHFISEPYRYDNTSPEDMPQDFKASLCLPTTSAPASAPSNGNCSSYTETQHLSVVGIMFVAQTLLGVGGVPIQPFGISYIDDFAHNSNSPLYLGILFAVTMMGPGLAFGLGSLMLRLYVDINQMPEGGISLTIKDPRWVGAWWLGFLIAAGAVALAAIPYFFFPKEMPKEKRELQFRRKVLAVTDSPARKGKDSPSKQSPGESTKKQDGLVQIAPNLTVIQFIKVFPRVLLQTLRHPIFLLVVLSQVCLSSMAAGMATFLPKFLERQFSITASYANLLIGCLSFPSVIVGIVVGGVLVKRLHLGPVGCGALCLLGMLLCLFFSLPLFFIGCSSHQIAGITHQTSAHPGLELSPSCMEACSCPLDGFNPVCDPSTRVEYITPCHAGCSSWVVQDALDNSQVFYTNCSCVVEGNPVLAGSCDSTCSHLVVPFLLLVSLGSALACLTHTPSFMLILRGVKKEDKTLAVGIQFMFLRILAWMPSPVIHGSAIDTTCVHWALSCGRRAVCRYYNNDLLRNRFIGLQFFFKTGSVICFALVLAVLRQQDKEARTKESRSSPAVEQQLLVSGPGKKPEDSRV

Row | Molecule | TransportTC/TransportMC ratio (net transport ratio) (human OCT2) | TransportTC/TransportMC ratio (net transport ratio) (rat Pept1) | TransportTC/TransportMC ratio (net transport ratio) (rat Octn2) | TransportTC/TransportMC ratio (net transport ratio) (human OATP2B1)
1 | O=C(/C=C/c1ccc(O)c2c1[C@H](C(=O)O)[C@@H](c1ccc(O)c(O)c1)O2)O[C@H](Cc1ccc(O)c(O)c1)C(=O)O [Lithospermic acid, lithospermic acid] | 0.89 ± 0.31 | 1.31 ± 0.32 | 0.95 ± 0.11 | 1.16 ± 0.27
2 | O=C(O)c1ccc(O)c(O)c1 [Protocatechuic acid, protocatechuic acid] | 0.75 ± 0.35 | 1.37 ± 0.36 | 0.91 ± 0.17 | 1.36 ± 0.15
3 | O=C(O)Cc1c(/C=C/C(=O)O[C@H](Cc2ccc(O)c(O)c2)C(=O)O)ccc(O)c1O [Salvianolic acid D, salvianolic acid D] | 0.85 ± 0.26 | 1.43 ± 0.36 | 1.12 ± 0.22 | 2.27 ± 1.16
4 | salvianolic acid B | 0.75 ± 0.23 | 1.21 ± 0.45 | 1.25 ± 0.21 | 1.32 ± 0.33
